Here are results for 21 molecules from patent US20260167623A1 (NIKANG THERAPEUTICS, INC., priority 2022, published 2026).

This test has as its target T1, CDK2 (Homo sapiens, UniProt P24941).
T1 construct: High-Throughput Measurement of Cellular Endogenous CDK2; endogenous in cells; host or cells: OVCAR3
The test is described as follows: Inhibition of CDK2: phospho-Rb (S807/811) HTRF measurement in OVCAR3 cells, 24 h. Format: cell-based. The following applies: 24 h compound treatment, read-out: pRB_OVCAR3_24h. The protocol:
Inhibition of CDK2: Phospho-R^b Measurement in Cells
Phosphorylation of RB protein at S807/811 were measured using HTRF phospho-RB cellular kits (Cat #64RBS807PEG) from Cisbio.
On Day 1, OVCAR3 (CDK2 dependent cell line) cells were seeded into 96-well tissue-culture treated plates at 20,000 cells/well in 200 μL and incubated overnight at 37° C. in CO2 atmosphere. On Day 2, the cells were treated with test compounds at concentrations from 0.3 to 10,000 nM using HP D300 digital dispenser. Twenty-four hours after compound treatment, cell culture media is removed by flicking the plate and tapping the plate against clean paper towel. 30 μL 1× lysis buffer was supplemented from the kit was added to each well and the plate was incubated at room temperature on shaker for 30 min. After homogenization by pipetting up and down, 8 μL cell lysate from 96-well cell culture plate was transferred to 384-well small volume white detection plate. 2 μL premixed detection solution was added and the plate was covered with sealer. To prepare the detection solution, d2 conjugated-phospho-RB antibody and Eu-cryptate conjugated phosphor-RB antibody were diluted into detection buffer following manufacturer's instruction. Detection plates were incubated for 4 h at room temperature and read on ClarioStar (BMG Labtech) in TR-FRET mode (665 nM and 620 nM). The TR-FRET ratio (665 nM/620 nM) was plotted against the compound concentration and normalized to DMSO controls. Half maximal inhibition concentration (IC50) values were calculated with a four-parameter logistic fit using GraphPad Prism (version 8; La Jolla, CA).
For the molecule `Cn1nc(N2CCC(=O)NC2=O)c2ccc(C3CCN(CCCC4CCN(S(=O)(=O)N5CCC(Nc6ncc(C(F)(F)F)cn6)CC5)CC4)CC3)cc21` [Example 36], the IC50 is 500 to 2500 nM. With `O=C1CCC(N2Cc3cc(N4CCC(Oc5cccc(S(=O)(=O)N6CCC(Nc7ncc(C(F)(F)F)cn7)CC6)c5)CC4)ccc3C2=O)C(=O)N1` (stereo not drawn) [Example 41, 3-(1-ox0-5-(4-(3-((4-((5-(trifluoromethyl)-pyrimidin-2-yl)amino)piperidin-1-yl)sulfonyl)phenoxy)piperidin-1-yl)isoindolin-2-yl)piperidine-2,6-dione] the figure was 100 to 500 nM; with `O=C1CCC(N2Cc3cc(N4CCC(N5CC(Oc6cccc(S(=O)(=O)N7CCC(Nc8ncc(C(F)(F)F)cn8)CC7)c6)C5)CC4)ccc3C2=O)C(=O)N1` (stereo not drawn) [Example 45, 3-(1-ox0-5-(4-(3-(3-((4-((5-(trifluoro-methyl)pyrimidin-2-yl)amino)piperidin-1-yl)sulfonyl)phenoxy)azetidin-1-yl)piperidin-1-yl)isoindolin-2-yl)piperidine-2,6-dione], 100 to 500 nM; with `Cn1nc(N2CCC(=O)NC2=O)c2ccc(N3CC4(CN(Cc5cccc(S(=O)(=O)N6CCC(Nc7ncc(Cl)cn7)CC6)c5)C4)C3)cc21` [Example 46], 500 to 2500 nM. The same measure for `O=C1CCC(N2Cc3cc(C4CN(Cc5cccc(S(=O)(=O)N6CCC(Nc7ncc(C(F)(F)F)cn7)CC6)c5)C4)ccc3C2=O)C(=O)N1` (stereo not drawn) [Example 48, 3-(1-oxo-5-(1-(3-((4-((5-(trifluoromethyl)-pyrimidin-2-yl)amino)piperidin-1-yl)sulfonyl)benzyl)azetidin-3-yl)isoindolin-2-yl)piperidine-2,6-dione]: 100 to 500 nM. For `Cn1nc(N2CCC(=O)NC2=O)c2ccc(C3CN(Cc4cccc(S(=O)(=O)N5CCC(Nc6ncc(C(F)(F)F)cn6)CC5)c4)C3)cc21` [Example 49, 1-(1-methyl-6-(1-(3-((4-((5-(trifluoro-methyl)pyrimidin-2-yl)amino)piperidin-1-yl)sulfonyl)benzyl)azetidin-3-yl)-1H-indazol-3-yl)dihydropyrimidine-2,4(1H,3H)-dione], the IC50 lay in the range of 500 to 2500 nM.

With `O=C1CCC(N2Cc3cc(C4CN(Cc5cccc(S(=O)(=O)N6CCC(Nc7ncc(Cl)cn7)CC6)c5)C4)ccc3C2=O)C(=O)N1` (stereo not drawn) [Example 50, 3-(5-(1-(3-((4-((5-chloropyrimidin-2-yl)amino)piperidin-1-yl)sulfonyl)benzyl)-azetidin-3-yl)-1-oxoisoindolin-2-yl)piperidine-2,6-dione], the IC50 was 500 to 2500 nM. For the molecule `Cn1nc(N2CCC(=O)NC2=O)c2ccc(N3CCN(CC4CCN(c5cccc(S(=O)(=O)N6CCC(Nc7ncc(C(F)(F)F)cn7)CC6)c5)CC4)CC3)cc21` [Example 51, 1-(1-methyl-6-(4-((1-(3-((4-((5-(trifluoro-methyl)pyrimidin-2-yl)amino)piperidin-1-yl)sulfonyl)phenyl)piperidin-4-yl)methyl)piperazin-1-yl)-1H-indazol-3-yl)dihydropyrimidine-2,4(1H,3H)-dione], the IC50 was 500 to 2500 nM. The same measure for `Cn1nc(N2CCC(=O)NC2=O)c2ccc(N3CCN(CC4CCN(c5cccc(S(=O)(=O)N6CCC(Nc7ncc(Cl)cn7)CC6)c5)CC4)CC3)cc21` [Example 52, 1-(6-(4-((1-(3-((4-((5-chloropyrimidin-2-yl)amino)piperidin-1-yl)sulfonyl)phenyl)-piperidin-4-yl)methyl)piperazin-1-yl)-1-methyl-1H-indazol-3-yl)dihydropyrimidine-2,4(1H,3H)-dione]: 500 to 2500 nM; for `Cn1nc(N2CCC(=O)NC2=O)c2ccc(C3CN(Cc4cccc(S(=O)(=O)N5CCC(Nc6ncc(Cl)cn6)CC5)c4)C3)cc21` [Example 56, 1-(6-(1-(3-((4-((5-chloropyrimidin-2-yl)amino)piperidin-1-yl)sulfonyl)benzyl)-azetidin-3-yl)-1-methyl-1H-indazol-3-yl)dihydropyrimidine-2,4(1H,3H)-dione]: 500 to 2500 nM; for `COc1cnc(NC2CCN(S(=O)(=O)c3cccc(CN4CCC(c5ccc6c(N7CCC(=O)NC7=O)nn(C)c6c5)CC4)c3)CC2)nc1` [Example 57, 1-(6-(1-(3-((4-((5-methoxypyrimidin-2-yl)amino)piperidin-1-yl)sulfonyl)benzyl)-piperidin-4-yl)-1-methyl-1H-indazol-3-yl)dihydropyrimidine-2,4(1H,3H)-dione]: 500 to 2500 nM. With `Cn1nc(N2CCC(=O)NC2=O)c2ccc(C3CCN(Cc4cccc(S(=O)(=O)[C@H]5CC[C@H](Nc6ncc(Cl)cn6)CC5)c4)CC3)cc21` [Example 59, 1-(6-(1-(3-(((1r,4r)-4-((5-chloropyrimidin-2-yl)amino)cyclohexyl)sulfonyl)benzyl)piperidin-4-yl)-1-methyl-1H-indazol-3-yl)dihydropyrimidine-2,4(1H,3H)-dione] the figure was above 2500 nM; with `Cc1cnc(NC2CCN(S(=O)(=O)c3cccc(CN4CCC(c5ccc6c(N7CCC(=O)NC7=O)nn(C)c6c5)CC4)c3)CC2)nc1` [Example 60, 1-(1-methyl-6-(1-(3-((4-((5-methyl-pyrimidin-2-yl)amino)piperidin-1-yl)sulfonyl)benzyl)piperidin-4-yl)-1H-indazol-3-yl)dihydropyrimidine-2,4(1H,3H)-dione], 500 to 2500 nM. In the case of `O=C1CCN(c2nn(CC(F)(F)F)c3cc(N4CCN(Cc5cccc(S(=O)(=O)N6CCC(Nc7ncc(Cl)cn7)CC6)c5)CC4)ccc23)C(=O)N1` [Example 62, 1-(6-(4-(3-((4-((5-chloropyrimidin-2-yl)amino)piperidin-1-yl)sulfonyl)benzyl)-piperazin-1-yl)-1-(2,2,2-trifluoroethyl)-1H-indazol-3-yl)dihydropyrimidine-2,4(1H,3H)-dione], the IC50 was in the range of 100 to 500 nM. With `Cn1nc(N2CCC(=O)NC2=O)c2ccc(C3CCN(Cc4ccc(S(=O)(=O)N5CCC(Nc6ncc(Cl)cn6)CC5)cc4)CC3)cc21` [Example 63, 1-(6-(1-(4-((4-((5-chloropyrimidin-2-yl)amino)piperidin-1-yl)sulfonyl)benzyl)-piperidin-4-yl)-1-methyl-1H-indazol-3-yl)dihydropyrimidine-2,4(1H,3H)-dione] the figure was 1 to 100 nM. With `Cn1nc(N2CCC(=O)NC2=O)c2ccc(N3CCN(Cc4cccc(S(=O)(=O)[C@H]5CC[C@H](Nc6ncc(Cl)cn6)CC5)c4)CC3)cc21` [Example 67, 1-(6-(4-(3-(((1r,4r)-4-((5-chloropyrimidin-2-yl)amino)cyclohexyl)sulfonyl)benzyl)piperazin-1-yl)-1-methyl-1H-indazol-3-yl)dihydropyrimidine-2,4(1H,3H)-dione] the figure was above 2500 nM.

`CN(C)c1cnc(NC2CCN(S(=O)(=O)c3cccc(CN4CCC(c5ccc6c(N7CCC(=O)NC7=O)nn(C)c6c5)CC4)c3)CC2)nc1` [Example 70, 1-(6-(1-(3-((4-((5-(dimethylamino)-pyrimidin-2-yl)amino)piperidin-1-yl)-sulfonyl)benzyl)piperidin-4-yl)-1-methyl-1H-indazol-3-yl)dihydropyrimidine-2,4(1H,3H)-dione]: the IC50 is above 2500 nM.

On to `O=C1CCC(N2C(=O)c3cc(F)c(N4CCN(Cc5cccc(S(=O)(=O)N6CCC(Nc7ncc(C(F)(F)F)cn7)CC6)c5)CC4)cc3C2=O)C(=O)N1` (stereo not drawn) [Example 72, 2-(2,6-dioxopiperidin-3-yl)-5-fluoro-6-(4-(3-((4-((5-(trifluoromethyl)pyrimidin-2-yl)amino)piperidin-1-yl)sulfonyl)benzyl)-piperazin-1-yl)isoindoline-1,3-dione], for which the IC50 fell in the range of 500 to 2500 nM. In the case of `Cn1nc(N2CCC(=O)NC2=O)c2ccc(C3CCN(Cc4cccc(S(=O)(=O)N5CCC(Nc6ncc(OC(F)F)cn6)CC5)c4)CC3(F)F)cc21` (stereo not drawn) [Example 75, 1-(6-(1-(3-((4-((5-(difluoromethoxy)-pyrimidin-2-yl)amino)piperidin-1-yl)sulfonyl)benzyl)-3,3-difluoropiperidin-4-yl)-1-methyl-1H-indazol-3-yl)dihydropyrimidine-2,4(1H,3H)-dione], the IC50 was 100 to 500 nM. The same measure for `O=C1CCC(Nc2ccc(N3CCN(Cc4cccc(S(=O)(=O)N5CCC(Nc6ncc(C(F)(F)F)cn6)CC5)c4)CC3)cc2)C(=O)N1` (stereo not drawn) [Example 78, 3-((4-(4-(3-((4-((5-(trifluoromethyl)-pyrimidin-2-yl)amino)piperidin-1-yl)sulfonyl)benzyl)piperazin-1-yl)phenyl)amino) piperidine-2,6-dione]: 100 to 500 nM; for `O=C1CCC(N2C(=O)c3cc(F)c(N4CCN(CC5CCN(c6cccc(S(=O)(=O)N7CCC(Nc8ncc(Cl)cn8)CC7)c6)CC5)CC4)cc3C2=O)C(=O)N1` (stereo not drawn) [Example 79, 5-(4-((1-(3-((4-((5-chloropyrimidin-2-yl)amino)piperidin-1-yl)sulfonyl)phenyl)-piperidin-4-yl)methyl)piperazin-1-yl)-2-(2,6-dioxopiperidin-3-yl)-6-fluoroisoindoline-1,3-dione]: 500 to 2500 nM.
